{
  "source": "paper PMC7763472",
  "about": "“High Capability of Pentagalloylglucose (PGG) in Inhibiting Multiple Types of Membrane Ionic Currents” (International Journal of Molecular Sciences, 2020)",
  "target": "T1, proton-activated Cl− channel (PAC) (Rattus norvegicus, UniProt Q66H28)",
  "T1 construct": "gene Pacc1",
  "T1 sequence (Q66H28 whole entry)": "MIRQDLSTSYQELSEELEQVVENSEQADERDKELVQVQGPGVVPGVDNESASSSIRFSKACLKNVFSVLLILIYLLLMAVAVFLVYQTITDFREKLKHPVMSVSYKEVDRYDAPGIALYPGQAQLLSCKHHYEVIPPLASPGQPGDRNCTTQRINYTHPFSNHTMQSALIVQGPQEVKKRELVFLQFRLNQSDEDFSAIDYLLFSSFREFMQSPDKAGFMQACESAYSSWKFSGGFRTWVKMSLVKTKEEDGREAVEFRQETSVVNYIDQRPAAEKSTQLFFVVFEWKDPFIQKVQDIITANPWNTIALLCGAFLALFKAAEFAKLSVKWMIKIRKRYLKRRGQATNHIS",
  "assay": "whole-cell patch clamp of native IPAC in GH3 cells, pH […], single concentration […]",
  "assay_type": "cell-based",
  "data": [
    {"compound": "CCCCC1(C2CCCC2)Cc2cc(OCCCC(=O)O)c(Cl)c(Cl)c2C1=O", "note": "(stereo not shown) [DCPIB, 4-[(2-Butyl-6,7-dichloro-2-cyclopentyl-2,3-dihydro-1-oxo-1H-inden-5yl)oxy] butanoic acid]", "values": [
      {"measurement": "inhibition at 10 µM", "result": 51, "unit": "%"}
    ]}
  ]
}
